Reference: BindingDB's records for doi:10.7270/Q2QR4VJR (Nmmlsc, 2010)

Biological target: T1, Regulator of G-protein signaling 16 (Homo sapiens, UniProt O15492)
T1 sequence (O15492 whole entry): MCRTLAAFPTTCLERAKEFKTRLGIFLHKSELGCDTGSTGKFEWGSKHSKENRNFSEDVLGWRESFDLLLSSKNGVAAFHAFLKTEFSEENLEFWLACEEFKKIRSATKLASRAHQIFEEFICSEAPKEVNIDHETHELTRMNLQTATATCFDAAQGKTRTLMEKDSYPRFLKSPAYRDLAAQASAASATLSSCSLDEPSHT
Experiment: RGS16-Galphao binding modulators, SAR follow-up, biochemical, multiplexed bead flow cytometry, SAR compounds (AID 2298)

Ki	SMILES
20 nM	NS(=O)(=O)c1ccc(N=NCc2ccc(O)c(O)c2O)c([N+](=O)[O-])c1 [4-[[(E)-(2,3-dihydroxy-4-oxo-1-cyclohexa-2,5-dienylidene)methyl]hydrazo]-3-nitrobenzenesulfonamide]
100 nM	O=C1C(Cl)=C(N2CCCCC2)C(=O)C(Cl)=C1c1cnc(N2CCCCC2)s1 [MLS000550549]
